Source: US4310682A, “Halo-salicylanilide” (priority 1979, dated 1982)

Experiments:
Assay type in all cases: cell-based
[1] = system: Candida albicans ATCC 10259; assay: MIC, Sabouraud agar medium containing the compound; conditions: fungus No. 5, 20° C., 14 days
Description: (§1) In order to test antifungal and bactericidal activity of halo-salicylanilide obtained in above mentioned Examples, following bacteria and fungi are employed.
No. 5 Candida albicans ATCC 10259
(§2) Bacteria No. 1 to No. 4 are respectively cultured in Hart Infusion bouillon medium at 37° C. for 20 hours and resulting medium liquids are employed for said test. Fungi No. 5 to No. 7 are respectively cultured in Sabouraud agar medium and 10^6 cell/ml of cell dispersing liquids obtained from said medium are employed for said test.

[2] = system: Escherichia coli NIHJ JC-2; assay: MIC, agar medium containing the compound; conditions: bacterium No. 1, 37° C., 4 hours
Description: as §1
No. 1 Escherichia coli NIHJ JC-2
as §2

[3] = system: Trichophyton rubrum IFO 9185; assay: MIC, Sabouraud agar medium containing the compound; conditions: fungus No. 7, 20° C., 14 days
Description: as §1
No. 7 Trichophyton rubrum IFO 9185
as §2

[4] = system: Aspergillus flavus IFO 8558; assay: MIC, Sabouraud agar medium containing the compound; conditions: fungus No. 6, 20° C., 14 days
Description: as §1
No. 6 Aspergillus flavus IFO 8558
as §2

[5] = system: Pseudomonas aeruqinosa NC-5; assay: MIC, agar medium containing the compound; conditions: bacterium No. 2, 37° C., 4 hours
Description: as §1
No. 2 Pseudomonas aeruqinosa NC-5
as §2

[6] = system: Bacillus subtilis PCI-219; assay: MIC, agar medium containing the compound; conditions: bacterium No. 4, 37° C., 4 hours
Description: as §1
No. 4 Bacillus subtilis PCI-219
as §2

[7] = system: Staphylococcus aureus FDA-209-P; assay: MIC, agar medium containing the compound; conditions: bacterium No. 3, 37° C., 4 hours
Description: as §1
No. 3 Staphylococcus aureus FDA-209-P
as §2

[8] = system: bacteria No. 1 to No. 4 and fungi No. 5 to No. 7; assay: Antifungal and bactericidal activity test, overall assessment of Table 8; conditions: referring to Table 8
Description: as §1, §2
Referring now to Table 8, in said Examples the halo-salicylanilides provided have respectively remarkable higher antifungal and bactericidal activity than that of the contrasts proposed and said halo-salicylanilidesare especially effective on bacteria No. 3 and No. 4, and fungi No. 5, No. 6 and No. 7. This testifies that alkyl group of 2'-position of the halo-salicylanilides is significant for the activities of the compound. […] Especially the halo-salicylanilides having fluorine in 5-position are very useful for agricultural medicines.

[9] = system: Candida albicans ATCC 10259; assay: Multiplying state after removal to compound-free medium (scanning electron microscope); conditions: first cultured in medium containing the compound, then removed; FIG. 1 and FIG. 2

Molecule	MIC (Minimum Inhibitory Concentration) [1]	MIC (Minimum Inhibitory Concentration) [2]	MIC (Minimum Inhibitory Concentration) [3]	MIC (Minimum Inhibitory Concentration) [4]	MIC (Minimum Inhibitory Concentration) [5]	MIC (Minimum Inhibitory Concentration) [6]	MIC (Minimum Inhibitory Concentration) [7]	antifungal and bactericidal activity (assessment in words) [8]	multiplying state of the fungi after removal to culture medium without the compound [9]
O=C(Nc1ccc(Cl)cc1)c1cc(Br)ccc1O [Contrast No. 1, reference compound]	> 100	> 100	50	> 100	> 100	–	–	–	–
CC(=O)Oc1ccc(F)cc1C(=O)Nc1ccc(Cl)cc1C [compound 15, 5-fluoro-2'-methyl-4'-chloro acetylsalicylanilide]	100	> 100	< 0.8	–	100	0.4	0.4	–	–
CC(=O)Oc1ccc(Cl)cc1C(=O)Nc1ccc(Cl)cc1C [compound 4, 5-chloro-2'-methyl-4' chloro-acetyl salcylanilide]	100	> 100	0.2	–	> 100	0.2	0.1	–	–
CC(=O)Oc1ccc(Br)cc1C(=O)Nc1ccc(Cl)cc1C [compound 9, 5-bromo-2'-methyl-4'-chloro acetylsalicylanilide]	100	> 100	25	–	> 100	0.8	0.8	–	–
5-bromo-2'-methyl-4'-acetylsalicylanilide [compound 11]	100	> 100	0.8	–	> 100	0.4	0.2	–	–
COC1=CC(=O)C[C@@H](C)[C@]12Oc1c(Cl)c(OC)cc(OC)c1C2=O [Contrast No. 4, griseo fulvin, reference compound]	–	> 100	25	25	–	> 100	> 100	–	–
Cc1cc(Br)ccc1NC(=O)c1cc(I)ccc1O [compound 5, 5-iodo-2'-methyl-4'-bromo salicylanilide]	3.2	> 100	3.2	3.2	–	0.75	0.37	remarkable antifungal and bactericidal activity	–
Cc1cc(Br)ccc1NC(=O)c1cc(F)ccc1O [compound 16, 5-fluoro-2'-methyl-4'-bromo salicylanilide]	100	> 100	< 0.8	–	100	0.4	0.4	–	–
Cc1cc(I)ccc1NC(=O)c1cc(F)ccc1O [compound 18, 5-fluoro-2'-methyl-4'-iodo salicylanilide]	100	> 100	< 0.8	–	100	0.4	0.4	–	–
CC(=O)Oc1ccc(I)cc1C(=O)Nc1ccc(Br)cc1C [compound 13, 5-iodo-2'-methyl-4'-bromo acetylsalicylanilide]	100	> 100	12.5	–	100	0.4	0.2	remarkable antifungal and bactericidal activity	–
C=CCCCCCCCCC(=O)O [Contrast No. 3, undecylenic acid, reference compound]	–	> 100	50	50	–	> 100	> 100	–	–
CC(=O)Oc1ccc(Cl)cc1C(=O)Nc1ccc(Br)cc1C [compound 8, 5-chloro-2'-methyl-4'-bromo acetylsalicylanilide]	100	> 100	< 0.8	–	> 100	0.8	0.8	–	–
CCc1cc(Cl)ccc1NC(=O)c1cc(I)ccc1O [compound 6, 5-iodo-2'-ethyl-4'-chloro salicylanilide]	6.3	> 100	3.2	3.2	–	0.75	0.75	remarkable antifungal and bactericidal activity	–
Cc1cc(Cl)ccc1NC(=O)c1cc(F)ccc1O [compound 14, 5-fluoro-2'-methyl-4'-chloro salicylanilide]	100	> 100	< 0.8	–	100	0.4	0.4	–	–
O=C(Nc1ccc(Cl)cc1)c1cc(I)cc(I)c1O [Contrast No. 2, reference compound]	50	> 100	50	> 100	> 100	–	–	–	again starts to multiply
CC(=O)Oc1ccc(F)cc1C(=O)Nc1ccc(Br)cc1C [compound 17, 5-fluoro-2'-methyl-4'-bromo acetylsalicylanilide]	100	> 100	< 0.8	–	100	0.4	0.4	–	–
CC(=O)Oc1ccc(I)cc1C(=O)Nc1ccc(Cl)cc1C [compound 12, 5-iodo-2'-methyl-4'-chloro acetylsalicylanilide]	100	> 100	0.8	–	100	0.8	0.8	–	–
Cc1cc(Br)ccc1NC(=O)c1cc(Cl)ccc1O [compound 2, 5-chloro-2'-methyl-4'-bromo salicyl anilide]	50	> 100	50	50	> 100	0.8	0.8	–	–
Cc1cc(Cl)ccc1NC(=O)c1cc(Br)ccc1O [compound 1, 5-bromo-2'-methyl-4'-chloro salicylanilide]	50	> 100	50	50	> 100	0.8	0.8	–	–
CC(=O)Oc1ccc(F)cc1C(=O)Nc1ccc(I)cc1C [compound 19, 5-fluoro-2'-methyl-4'-iodo acetylsalicylanilide]	100	> 100	< 0.8	–	100	0.4	0.4	–	–
Cc1cc(Br)ccc1NC(=O)c1cc(Br)ccc1O [compound 10, 5-bromo-2'-methyl-4'-bromo salicylanilide]	100	> 100	0.8	–	> 100	0.4	0.2	–	–
5-chloro-2'-methyl-4'-bromo chloro salicylanilide [compound 7]	100	> 100	25	–	> 100	0.8	0.8	–	–
